Results published in paper PMC9030254, “Target Hopping from Protein Kinases to PXR: Identification of Small-Molecule Protein Kinase Inhibitors as Selective Modulators of Pregnane X Receptor from TüKIC Library” (Cells, 2022).

How the values were obtained:
Experiment in all cases: Kinase profiling
Format in all cases: biochemical
ABL1 = biological target: T1, ABL1 (Homo sapiens, UniProt P00519)
T1 construct: purchased ProQinase (Freiburg, Germany)
Description: (§1) The analysis was performed by ProQinase (Freiburg, Germany).

AuroraC = biological target: T2, AuroraC (Homo sapiens, UniProt Q9UQB9)
T2 construct: purchased ProQinase (Freiburg, Germany)
T2 sequence (Q9UQB9 1-309): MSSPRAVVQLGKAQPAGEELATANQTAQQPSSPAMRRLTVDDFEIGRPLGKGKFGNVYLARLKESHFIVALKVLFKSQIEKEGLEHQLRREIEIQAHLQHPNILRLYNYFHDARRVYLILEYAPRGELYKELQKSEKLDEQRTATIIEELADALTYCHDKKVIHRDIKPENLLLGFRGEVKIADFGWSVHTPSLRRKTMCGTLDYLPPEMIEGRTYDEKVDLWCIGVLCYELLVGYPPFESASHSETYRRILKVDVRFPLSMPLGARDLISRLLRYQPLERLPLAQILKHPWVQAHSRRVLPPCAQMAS
Description: as §1

CAMKK1 = biological target: T3, CAMKK1 (Homo sapiens, UniProt Q8N5S9)
T3 construct: purchased ProQinase (Freiburg, Germany)
Description: as §1

CDK2/CycE1 = biological target: T4, CDK2/CycE1 (Homo sapiens, UniProt P24941)
T4 construct: purchased ProQinase (Freiburg, Germany)
Description: as §1

CDK3/CycC = biological target: T5, CDK3/CycC (Homo sapiens, UniProt Q00526)
T5 construct: purchased ProQinase (Freiburg, Germany)
Description: as §1

CDK8/CycC = biological target: T6, CDK8/CycC (Homo sapiens, UniProt P49336)
T6 construct: purchased ProQinase (Freiburg, Germany)
Description: as §1

CDK9/CycT1 = biological target: T7, CDK9/CycT1 (Homo sapiens, UniProt P50750)
T7 construct: purchased ProQinase (Freiburg, Germany)
Description: as §1

CHK1 = biological target: T8, CHK1 (Homo sapiens, UniProt O14757)
T8 construct: purchased ProQinase (Freiburg, Germany)
T8 sequence (O14757 1-476): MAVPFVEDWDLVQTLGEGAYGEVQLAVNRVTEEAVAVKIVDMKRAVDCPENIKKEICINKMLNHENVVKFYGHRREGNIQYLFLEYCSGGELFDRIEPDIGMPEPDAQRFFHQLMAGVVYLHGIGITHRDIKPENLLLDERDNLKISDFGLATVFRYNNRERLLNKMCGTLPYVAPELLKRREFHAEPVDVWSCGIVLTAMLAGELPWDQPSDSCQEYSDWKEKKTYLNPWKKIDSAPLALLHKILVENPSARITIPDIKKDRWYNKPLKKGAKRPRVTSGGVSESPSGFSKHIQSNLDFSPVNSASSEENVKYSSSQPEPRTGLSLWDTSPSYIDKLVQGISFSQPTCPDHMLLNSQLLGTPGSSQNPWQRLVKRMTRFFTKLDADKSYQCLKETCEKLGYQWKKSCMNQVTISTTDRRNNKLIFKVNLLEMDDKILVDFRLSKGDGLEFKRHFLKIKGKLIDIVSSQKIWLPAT
Description: as §1

ERK1 = biological target: T9, ERK1 (Homo sapiens, UniProt P27361)
T9 construct: purchased ProQinase (Freiburg, Germany)
Description: as §1

MAP4K4 = biological target: T10, MAP4K4 (Homo sapiens, UniProt O95819)
T10 construct: purchased ProQinase (Freiburg, Germany)
Description: as §1

MEKK2 = biological target: T11, MEKK2 (Homo sapiens, UniProt Q9Y2U5)
T11 construct: purchased ProQinase (Freiburg, Germany)
T11 sequence (Q9Y2U5 1-619): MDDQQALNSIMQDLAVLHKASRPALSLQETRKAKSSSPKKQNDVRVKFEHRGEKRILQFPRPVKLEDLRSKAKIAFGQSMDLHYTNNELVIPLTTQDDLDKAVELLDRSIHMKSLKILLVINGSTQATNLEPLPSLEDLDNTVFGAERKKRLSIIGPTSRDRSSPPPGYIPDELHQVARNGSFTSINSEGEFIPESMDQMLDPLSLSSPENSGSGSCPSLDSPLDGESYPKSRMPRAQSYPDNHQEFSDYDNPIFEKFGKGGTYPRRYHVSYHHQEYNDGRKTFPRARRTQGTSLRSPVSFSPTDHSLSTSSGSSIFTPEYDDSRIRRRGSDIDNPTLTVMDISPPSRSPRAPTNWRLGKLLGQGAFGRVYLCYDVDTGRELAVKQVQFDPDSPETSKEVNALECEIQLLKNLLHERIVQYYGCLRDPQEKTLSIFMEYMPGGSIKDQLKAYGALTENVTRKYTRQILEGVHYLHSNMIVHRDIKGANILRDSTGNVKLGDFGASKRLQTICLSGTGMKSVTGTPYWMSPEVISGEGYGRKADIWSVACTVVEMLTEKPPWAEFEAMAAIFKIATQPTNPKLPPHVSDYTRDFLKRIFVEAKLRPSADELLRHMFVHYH
Description: as §1

RPS6KA6 = biological target: T12, RPS6KA6 (Homo sapiens, UniProt Q9UK32)
T12 construct: purchased ProQinase (Freiburg, Germany)
Description: as §1

SIK2 = biological target: T13, SIK2 (Homo sapiens, UniProt Q9H0K1)
T13 construct: purchased ProQinase (Freiburg, Germany)
Description: as §1

STK25 = biological target: T14, STK25 (Homo sapiens, UniProt O00506)
T14 construct: purchased ProQinase (Freiburg, Germany)
Description: as §1

YES = biological target: T15, YES (Homo sapiens, UniProt P07947)
T15 construct: purchased ProQinase (Freiburg, Germany)
Description: as §1

T12 sequence (Q9UK32 whole entry): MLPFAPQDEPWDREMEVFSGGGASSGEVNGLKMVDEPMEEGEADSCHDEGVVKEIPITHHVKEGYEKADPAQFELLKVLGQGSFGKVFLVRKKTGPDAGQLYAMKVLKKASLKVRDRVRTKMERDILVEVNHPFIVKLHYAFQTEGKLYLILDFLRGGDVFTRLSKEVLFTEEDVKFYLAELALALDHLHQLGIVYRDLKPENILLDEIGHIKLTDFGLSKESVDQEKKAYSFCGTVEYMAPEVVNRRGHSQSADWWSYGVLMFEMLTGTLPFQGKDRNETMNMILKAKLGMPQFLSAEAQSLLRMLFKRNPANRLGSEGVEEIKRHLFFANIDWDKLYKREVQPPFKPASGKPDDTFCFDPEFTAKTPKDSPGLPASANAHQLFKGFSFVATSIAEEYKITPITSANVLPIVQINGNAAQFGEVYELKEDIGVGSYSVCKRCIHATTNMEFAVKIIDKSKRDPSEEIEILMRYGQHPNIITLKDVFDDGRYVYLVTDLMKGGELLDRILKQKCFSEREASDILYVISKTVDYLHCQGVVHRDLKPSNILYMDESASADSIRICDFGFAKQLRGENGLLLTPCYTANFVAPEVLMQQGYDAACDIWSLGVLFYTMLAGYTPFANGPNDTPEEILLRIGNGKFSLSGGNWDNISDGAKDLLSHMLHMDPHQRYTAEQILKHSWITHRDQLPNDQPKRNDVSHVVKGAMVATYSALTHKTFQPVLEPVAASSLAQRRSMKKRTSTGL
T7 sequence (P50750 whole entry): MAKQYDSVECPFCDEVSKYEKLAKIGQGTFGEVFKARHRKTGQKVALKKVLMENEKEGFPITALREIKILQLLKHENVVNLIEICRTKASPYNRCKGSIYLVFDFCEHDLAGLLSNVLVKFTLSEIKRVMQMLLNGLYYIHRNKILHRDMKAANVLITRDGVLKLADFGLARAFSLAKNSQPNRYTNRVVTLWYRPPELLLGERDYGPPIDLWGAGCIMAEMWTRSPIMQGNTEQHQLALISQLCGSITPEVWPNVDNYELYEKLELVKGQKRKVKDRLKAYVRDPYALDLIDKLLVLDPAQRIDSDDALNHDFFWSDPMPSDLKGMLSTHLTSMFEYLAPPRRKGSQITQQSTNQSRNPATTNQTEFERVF
T7 sequence (O60563 whole entry partner): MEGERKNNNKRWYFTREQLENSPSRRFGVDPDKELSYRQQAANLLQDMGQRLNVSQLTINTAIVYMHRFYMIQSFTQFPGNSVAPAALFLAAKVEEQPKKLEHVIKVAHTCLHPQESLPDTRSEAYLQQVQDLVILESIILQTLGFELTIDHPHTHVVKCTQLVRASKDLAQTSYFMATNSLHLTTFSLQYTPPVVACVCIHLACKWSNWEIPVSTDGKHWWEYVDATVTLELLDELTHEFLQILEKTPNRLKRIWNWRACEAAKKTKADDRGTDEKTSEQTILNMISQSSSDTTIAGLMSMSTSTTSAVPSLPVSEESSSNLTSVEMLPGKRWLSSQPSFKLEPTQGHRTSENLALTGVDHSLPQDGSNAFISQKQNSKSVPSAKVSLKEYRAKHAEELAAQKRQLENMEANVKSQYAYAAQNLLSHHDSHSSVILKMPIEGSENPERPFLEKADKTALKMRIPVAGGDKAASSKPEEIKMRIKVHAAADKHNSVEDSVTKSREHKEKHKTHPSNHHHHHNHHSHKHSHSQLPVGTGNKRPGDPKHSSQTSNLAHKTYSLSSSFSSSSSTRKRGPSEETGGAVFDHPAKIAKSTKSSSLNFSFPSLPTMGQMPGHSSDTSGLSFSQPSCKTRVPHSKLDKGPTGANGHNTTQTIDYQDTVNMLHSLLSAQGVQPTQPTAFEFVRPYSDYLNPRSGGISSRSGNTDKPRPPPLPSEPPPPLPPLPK
T13 sequence (Q9H0K1 whole entry): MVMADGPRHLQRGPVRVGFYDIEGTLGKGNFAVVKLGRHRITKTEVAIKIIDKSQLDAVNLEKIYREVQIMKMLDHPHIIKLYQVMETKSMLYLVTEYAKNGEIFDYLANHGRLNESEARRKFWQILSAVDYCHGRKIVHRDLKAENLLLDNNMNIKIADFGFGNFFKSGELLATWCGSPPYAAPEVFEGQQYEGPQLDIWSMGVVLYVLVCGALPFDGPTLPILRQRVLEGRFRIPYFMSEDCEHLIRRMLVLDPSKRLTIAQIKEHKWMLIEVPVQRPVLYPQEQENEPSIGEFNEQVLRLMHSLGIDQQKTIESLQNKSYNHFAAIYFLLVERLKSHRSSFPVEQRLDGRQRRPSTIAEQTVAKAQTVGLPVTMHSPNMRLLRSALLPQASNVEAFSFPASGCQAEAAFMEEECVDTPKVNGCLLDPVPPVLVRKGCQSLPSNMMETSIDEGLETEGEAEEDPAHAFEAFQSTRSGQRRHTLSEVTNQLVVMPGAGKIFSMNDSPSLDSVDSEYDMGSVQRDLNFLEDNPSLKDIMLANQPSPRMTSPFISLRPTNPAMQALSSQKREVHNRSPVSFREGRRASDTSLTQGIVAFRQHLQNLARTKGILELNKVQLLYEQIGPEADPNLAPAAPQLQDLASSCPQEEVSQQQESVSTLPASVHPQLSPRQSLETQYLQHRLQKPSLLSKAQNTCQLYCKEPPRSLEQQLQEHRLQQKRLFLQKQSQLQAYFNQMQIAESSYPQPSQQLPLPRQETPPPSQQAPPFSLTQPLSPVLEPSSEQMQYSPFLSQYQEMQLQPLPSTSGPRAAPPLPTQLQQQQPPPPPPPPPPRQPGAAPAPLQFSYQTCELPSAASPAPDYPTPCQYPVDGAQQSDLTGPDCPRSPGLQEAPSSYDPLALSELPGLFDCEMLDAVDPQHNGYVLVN
T15 sequence (P07947 whole entry): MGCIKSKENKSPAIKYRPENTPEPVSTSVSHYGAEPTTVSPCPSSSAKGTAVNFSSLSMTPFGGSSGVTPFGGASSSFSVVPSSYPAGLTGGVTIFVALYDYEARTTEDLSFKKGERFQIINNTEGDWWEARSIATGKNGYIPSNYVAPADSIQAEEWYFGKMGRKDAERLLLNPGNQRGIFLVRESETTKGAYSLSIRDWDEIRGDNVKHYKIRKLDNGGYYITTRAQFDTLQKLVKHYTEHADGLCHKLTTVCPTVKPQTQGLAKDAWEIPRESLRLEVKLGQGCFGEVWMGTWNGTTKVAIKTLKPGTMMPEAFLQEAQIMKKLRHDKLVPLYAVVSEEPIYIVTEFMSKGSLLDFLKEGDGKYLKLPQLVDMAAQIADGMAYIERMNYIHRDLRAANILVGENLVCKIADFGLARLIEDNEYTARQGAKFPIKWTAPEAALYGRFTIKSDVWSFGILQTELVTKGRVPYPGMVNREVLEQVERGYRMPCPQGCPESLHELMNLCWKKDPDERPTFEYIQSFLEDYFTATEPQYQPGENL
T6 sequence (P49336 whole entry): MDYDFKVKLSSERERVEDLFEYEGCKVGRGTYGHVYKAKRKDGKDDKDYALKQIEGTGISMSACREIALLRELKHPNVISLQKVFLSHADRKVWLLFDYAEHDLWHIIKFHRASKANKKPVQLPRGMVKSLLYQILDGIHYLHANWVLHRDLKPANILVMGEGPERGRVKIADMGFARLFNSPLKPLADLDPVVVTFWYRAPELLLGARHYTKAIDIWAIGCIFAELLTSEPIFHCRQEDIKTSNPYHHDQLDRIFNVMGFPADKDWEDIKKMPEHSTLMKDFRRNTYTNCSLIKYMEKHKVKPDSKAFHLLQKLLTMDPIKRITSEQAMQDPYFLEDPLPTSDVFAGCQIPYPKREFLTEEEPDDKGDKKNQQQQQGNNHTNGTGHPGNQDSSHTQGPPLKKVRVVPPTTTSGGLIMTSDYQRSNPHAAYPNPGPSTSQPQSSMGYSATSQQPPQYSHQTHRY
T6 sequence (P24863 whole entry partner): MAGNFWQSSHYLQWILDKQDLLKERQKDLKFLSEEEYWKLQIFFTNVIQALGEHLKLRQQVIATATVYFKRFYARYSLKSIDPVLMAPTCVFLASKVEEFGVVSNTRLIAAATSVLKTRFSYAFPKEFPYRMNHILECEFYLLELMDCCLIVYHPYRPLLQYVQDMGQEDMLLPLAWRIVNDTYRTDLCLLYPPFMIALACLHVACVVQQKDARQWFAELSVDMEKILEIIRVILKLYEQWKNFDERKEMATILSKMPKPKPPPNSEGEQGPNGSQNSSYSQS
T3 sequence (Q8N5S9 whole entry): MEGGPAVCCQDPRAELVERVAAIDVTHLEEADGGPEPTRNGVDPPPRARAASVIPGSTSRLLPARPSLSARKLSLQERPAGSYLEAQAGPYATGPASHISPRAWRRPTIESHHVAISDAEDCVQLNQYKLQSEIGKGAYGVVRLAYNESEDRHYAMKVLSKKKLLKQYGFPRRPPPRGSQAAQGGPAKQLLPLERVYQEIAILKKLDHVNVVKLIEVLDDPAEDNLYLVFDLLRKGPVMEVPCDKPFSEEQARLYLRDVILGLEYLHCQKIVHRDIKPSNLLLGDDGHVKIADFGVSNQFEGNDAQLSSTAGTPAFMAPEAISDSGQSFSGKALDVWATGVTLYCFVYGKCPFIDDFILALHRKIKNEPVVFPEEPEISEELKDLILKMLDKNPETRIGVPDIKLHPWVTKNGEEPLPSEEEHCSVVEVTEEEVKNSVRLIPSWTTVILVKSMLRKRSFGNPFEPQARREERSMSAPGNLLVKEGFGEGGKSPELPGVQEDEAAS
T14 sequence (O00506 whole entry): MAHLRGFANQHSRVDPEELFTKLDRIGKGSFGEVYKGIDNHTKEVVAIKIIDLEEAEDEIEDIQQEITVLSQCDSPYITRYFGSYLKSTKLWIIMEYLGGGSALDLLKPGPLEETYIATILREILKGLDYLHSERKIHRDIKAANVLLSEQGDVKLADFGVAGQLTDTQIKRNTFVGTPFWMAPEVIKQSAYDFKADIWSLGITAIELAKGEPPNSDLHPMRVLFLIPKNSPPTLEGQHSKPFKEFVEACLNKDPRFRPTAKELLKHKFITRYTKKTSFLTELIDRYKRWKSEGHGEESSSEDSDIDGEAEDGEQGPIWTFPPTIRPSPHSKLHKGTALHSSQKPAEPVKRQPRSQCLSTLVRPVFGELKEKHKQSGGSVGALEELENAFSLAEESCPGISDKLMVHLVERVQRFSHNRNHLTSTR

| SMILES | Residual activity (ABL1; 1.0E-05 M) | Residual activity (ABL1; 1.0E-06 M) | Residual activity (AuroraC; 1.0E-05 M) | Residual activity (AuroraC; 1.0E-06 M) | Residual activity (CAMKK1; 1.0E-05 M) | Residual activity (CAMKK1; 1.0E-06 M) | Residual activity (CDK2/CycE1; 1.0E-05 M) | Residual activity (CDK2/CycE1; 1.0E-06 M) | Residual activity (CDK3/CycC; 1.0E-05 M) | Residual activity (CDK3/CycC; 1.0E-06 M) | Residual activity (CDK8/CycC; 1.0E-05 M) | Residual activity (CDK8/CycC; 1.0E-06 M) | Residual activity (CDK9/CycT1; 1.0E-05 M) | Residual activity (CDK9/CycT1; 1.0E-06 M) | Residual activity (CHK1; 1.0E-05 M) | Residual activity (CHK1; 1.0E-06 M) | Residual activity (ERK1; 1.0E-05 M) | Residual activity (ERK1; 1.0E-06 M) | Residual activity (MAP4K4; 1.0E-05 M) | Residual activity (MAP4K4; 1.0E-06 M) | further results |
| --- | --- | --- | --- | --- | --- | --- | --- | --- | --- | --- | --- | --- | --- | --- | --- | --- | --- | --- | --- | --- | --- |
| O=C(Nc1ccc(F)c(Nc2ccc3c(c2)CCCCC3=O)c1)c1cccc(F)c1 [Compound 109] | 91 % of control | 91 % of control | 101 % of control | 99 % of control | 75 % of control | 77 % of control | 103 % of control | 93 % of control | 96 % of control | 87 % of control | 61 % of control | 79 % of control | 93 % of control | 92 % of control | 90 % of control | 88 % of control | 102 % of control | 100 % of control | 85 % of control | 94 % of control | Residual activity (MEKK2; 1.0E-05 M): 101 % of control; Residual activity (MEKK2; 1.0E-06 M): 99 % of control; Residual activity (RPS6KA6; 1.0E-05 M): 81 % of control; Residual activity (RPS6KA6; 1.0E-06 M): 88 % of control; Residual activity (SIK2; 1.0E-05 M): 82 % of control; Residual activity (SIK2; 1.0E-06 M): 93 % of control; Residual activity (STK25; 1.0E-05 M): 91 % of control; Residual activity (STK25; 1.0E-06 M): 90 % of control; Residual activity (YES; 1.0E-05 M): 77 % of control; Residual activity (YES; 1.0E-06 M): 98 % of control |
| O=C(Cc1ccccc1)Nc1ccc(F)c(Nc2ccc3c(c2)CCCCC3=O)c1 [Compound 100] | 88 % of control | 90 % of control | 101 % of control | 110 % of control | 80 % of control | 78 % of control | 118 % of control | 86 % of control | 89 % of control | 97 % of control | 60 % of control | 82 % of control | 89 % of control | 95 % of control | 91 % of control | 91 % of control | 99 % of control | 99 % of control | 95 % of control | 89 % of control | Residual activity (MEKK2; 1.0E-05 M): 108 % of control; Residual activity (MEKK2; 1.0E-06 M): 108 % of control; Residual activity (RPS6KA6; 1.0E-05 M): 83 % of control; Residual activity (RPS6KA6; 1.0E-06 M): 90 % of control; Residual activity (SIK2; 1.0E-05 M): 81 % of control; Residual activity (SIK2; 1.0E-06 M): 89 % of control; Residual activity (STK25; 1.0E-05 M): 89 % of control; Residual activity (STK25; 1.0E-06 M): 100 % of control; Residual activity (YES; 1.0E-05 M): 70 % of control; Residual activity (YES; 1.0E-06 M): 87 % of control |
